Assay results taken from patent US20220323761A1, “METHOD FOR INDUCING HIBERNATION-LIKE STATE AND DEVICE SAME” (University of Tsukuba, priority 2019, published 2022).

Tests used:
[1] = target: T1, adenosine A1 receptor (Mus musculus, UniProt Q60612); test: Metabolic state induced by IP CHA in wild-type mice; format: in vivo
T1 construct: endogenous in cells; host or cells: whole mouse, in vivo (intraperitoneal CHA)
T1 sequence (Q60612 1-326): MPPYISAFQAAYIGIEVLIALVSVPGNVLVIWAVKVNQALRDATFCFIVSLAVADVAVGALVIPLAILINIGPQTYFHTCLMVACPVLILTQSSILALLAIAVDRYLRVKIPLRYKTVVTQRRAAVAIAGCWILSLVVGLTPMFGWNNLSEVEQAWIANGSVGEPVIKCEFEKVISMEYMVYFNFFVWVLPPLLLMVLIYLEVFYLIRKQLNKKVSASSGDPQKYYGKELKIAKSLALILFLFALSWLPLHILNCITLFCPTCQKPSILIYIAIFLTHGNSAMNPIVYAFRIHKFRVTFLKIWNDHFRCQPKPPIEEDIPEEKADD
Description: In order to record the core body temperature, oxygen consumption amount, EEG, ECG, and respiratory patterns, each animal was housed in a temperature controlled chamber (HC-100, Shin Factory or LP-400P-AR, Nippon Medical & Chemical Instruments Co., Ltd.). In order to continuously record the TB (intraperitoneal temperature), a telemetry temperature sensor (TA11TA-F10, DSI) was implanted into the animal's abdominal cavity under general inhalation anesthesia at least 7 days prior to the recording. The VO 2 and carbon dioxide discharge rate (VCO2) of the animal were continuously recorded using a respiratory gas analyzer (ARCO-2000 mass spectrometer, ARCO System). The respiratory quotient was calculated from the ratio of VCO2/VO2.
The Dreadd agonist CNO (clozapine N-oxide, Abcam, ab141704) was dissolved in physiological saline at a dose of 100 μg/mL, and the solution was frozen at −20° C. The CNO solution was thawed on site and then administered to each mouse intraperitoneally at a dose of 1 mg/kg. The adenosineAl receptor agonist CHA (N^6-cyclohexyl adenosine, Sigma-Aldrich, C9901) was dissolved in physiological saline at a concentration of 250 μg/mL, and the solution was administered intraperitoneally to each mouse at a dose of 2.5 mg/kg.

[2] = administered centrally; cited from earlier work

Compound	induction of hypothermic/hypometabolic state ([1]; IP 2.5 mg/kg, wild-type mice)	reaction to low TA through behavior (posture and shivering) or increase in VO2 ([1]; TA 12° C., IP 2.5 mg/kg)	TB and VO2 at lowered TA ([1]; TA set to 12° C.)	TB compared with QIH ([1]; at 20°)	heart rate and blood pressure [2]	sympathetic nerve outflow [2]
OC[C@H]1O[C@@H](n2cnc3c(NC4CCCCC4)ncnc32)[C@H](O)[C@@H]1O [CHA, N^6-cyclohexyl adenosine]	effectively induced a hypothermic/hypometabolic state	did not react	further reduced	tends to be higher	–	–
pyroglutamylated RFamide peptide (QDEGSEATGFLPAAGEKTSGPLGNLAEELNGYSRKKGGFSFRF; QRF-amide; UniProt P83859 91-133, looked up) [Qrfp, hypothalamic neuropeptide, endogenous ligand of the orphan G-protein-coupled receptor hGPR103]	–	–	–	–	increase	increases
